Assay results reported in patent US5688938A, “Calcium receptor-active molecules” (priority 1995, dated 1997).
Counter-ions that a name gives are not always drawn.

molecular target: T1, parathyroid cell calcium receptor (Bos taurus, UniProt P35384); assay: cell-based; format: cell-based; conditions: not given
T1 sequence (P35384 21-1085 limits assumed): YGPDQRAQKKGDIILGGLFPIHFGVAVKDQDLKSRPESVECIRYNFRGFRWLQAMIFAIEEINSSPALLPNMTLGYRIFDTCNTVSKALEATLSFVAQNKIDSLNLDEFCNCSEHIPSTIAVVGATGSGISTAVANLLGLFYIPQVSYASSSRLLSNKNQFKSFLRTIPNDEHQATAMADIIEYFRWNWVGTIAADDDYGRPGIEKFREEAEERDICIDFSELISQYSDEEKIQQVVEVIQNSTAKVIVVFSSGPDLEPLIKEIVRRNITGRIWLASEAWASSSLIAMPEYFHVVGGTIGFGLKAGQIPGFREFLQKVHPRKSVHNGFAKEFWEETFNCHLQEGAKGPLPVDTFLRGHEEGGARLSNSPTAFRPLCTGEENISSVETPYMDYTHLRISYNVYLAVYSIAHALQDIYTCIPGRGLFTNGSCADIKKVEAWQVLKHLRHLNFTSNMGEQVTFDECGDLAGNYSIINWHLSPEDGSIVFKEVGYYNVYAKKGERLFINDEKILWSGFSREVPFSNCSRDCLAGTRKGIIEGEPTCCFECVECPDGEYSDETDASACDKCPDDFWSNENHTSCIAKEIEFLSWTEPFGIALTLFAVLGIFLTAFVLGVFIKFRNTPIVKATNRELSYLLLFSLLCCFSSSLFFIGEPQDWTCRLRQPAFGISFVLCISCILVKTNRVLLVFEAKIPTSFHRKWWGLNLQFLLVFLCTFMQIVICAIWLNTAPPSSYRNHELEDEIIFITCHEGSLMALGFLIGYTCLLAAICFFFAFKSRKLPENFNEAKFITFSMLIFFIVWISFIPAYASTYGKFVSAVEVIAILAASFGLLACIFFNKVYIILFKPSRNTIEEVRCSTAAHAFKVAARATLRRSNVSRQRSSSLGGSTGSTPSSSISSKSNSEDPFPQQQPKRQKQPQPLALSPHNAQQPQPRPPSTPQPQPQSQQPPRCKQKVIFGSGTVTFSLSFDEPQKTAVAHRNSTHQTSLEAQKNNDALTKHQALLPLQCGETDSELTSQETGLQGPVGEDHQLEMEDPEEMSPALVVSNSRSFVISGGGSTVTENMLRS

Row | Structure (SMILES) | effect on mobilization of intracellular Ca^2+ elicited by molecular polycations
1 | CCCCCCCCCCCCCC(=O)O[C@@H]1[C@@H](C)[C@@]2(O)[C@@H](C=C(CO)C[C@]3(O)C(=O)C(C)=C[C@@H]23)[C@@H]2C(C)(C)[C@]12OC(C)=O [PMA, phorbol myristate acetate, reference compound] | depressed

same assay, conditions: 1 μM

Row | effect on basal [Ca^2+]i or increases evoked by extracellular Ca^2+ | Structure (SMILES)
2 | None of the dihydropyridines tested | CC1=C(C(=O)OC(C)C)C(c2cccc3nonc23)C([N+](=O)[O-])=C(C)N1 (single isomer, unassigned; (-)) [(-) 202-791, reference compound]
3 | None of the dihydropyridines tested | COC(=O)C1=C(C)NC(C)=C([N+](=O)[O-])C1c1ccccc1C(F)(F)F (stereo not shown) [BAY K 8644, reference compound]

Row | Structure (SMILES) | effect on basal [Ca^2+]i or increases evoked by extracellular Ca^2+
4 | COC(=O)C1=C(C)NC(C)=C(C(=O)OC)C1c1ccccc1[N+](=O)[O-] [nifedipine, reference compound] | None of the dihydropyridines tested

same assay, conditions: 100 μM

Row | effective at 100 μM (as verapamil and D-600) | Structure (SMILES)
5 | effective | COc1ccc([C@@H]2Sc3ccccc3N(CCN(C)C)C(=O)[C@@H]2OC(C)=O)cc1 [diltiazem, reference compound]

same assay, conditions: 400 μM

Row | Structure (SMILES) | increases in [Ca^2+]i | potentiation of cytosolic Ca^2+ responses to extracellular Ca^2+
6 | N=C(N)NCCC[C@H](N)C(=O)NCCCNCCCNCCCCCNC(=O)[C@H](CC(N)=O)NC(=O)Cc1ccc(O)cc1O [Argiotoxin-636, reference compound] | did not elicit increases | did potentiate

same assay, conditions: 500 μM

Row | Structure (SMILES) | effect on intracellular Ca^2+
7 | CCCC(=O)N[C@@H](Cc1ccc(O)cc1)C(=O)NCCCCNCCCNCCCN [Philanthotoxin-433, reference compound] | without effect

same assay, conditions: 100 to 300 μM

Row | Structure (SMILES) | increases in [Ca^2+]i
8 | N=C(N)NCCC[C@H](N)C(=O)NCCCNCCCNCCCCCNC(=O)[C@H](CC(N)=O)NC(=O)Cc1ccc(O)cc1O [Argiotoxin-636, reference compound] | had no effect

same assay, conditions: Table 6; bovine parathyroid cells; read-out: EC50 PARATHYROID

Row | Structure (SMILES) | EC50
9 | COc1cccc([C@H](C)NCCCc2ccccc2)c1 [NPS S-467] | > 30 µM
10 | C[C@@H](NCCC(c1ccccc1)c1ccccc1)c1ccccc1 [R-Fendiline] | 9 µM

same assay, conditions: Table 7; parathyroid cell calcium receptor; read-out: EC50

Row | Structure (SMILES) | EC50
11 | COc1ccc(OC)c([C@@H](C)NCCCc2ccccc2)c1 [7Z(R-)] | > 30 µM
12 | COc1ccc(OC)c([C@H](C)NCCCc2ccccc2)c1 [7Z(S-)] | > 100 µM
13 | c1ccc(CNCCC(c2ccccc2)c2ccccc2)cc1 [Compound 1A] | 166 µM
14 | CC(NCCCc1ccccc1)c1ccccc1 (stereo not shown) [Compound 1D] | 48 µM
15 | CCC(NCCC(c1ccccc1)c1ccccc1)c1ccccc1 (stereo not shown) [Compound 1E] | 123 µM
16 | CC(NCCCCc1ccccc1)c1ccccc1 (stereo not shown) [Compound 1S] | 128 µM
17 | C[C@H](NCCCc1ccccc1)C1CCCCC1 [Compound 7Y] | > 30 µM
18 | COc1cccc([C@H](C)NCCCc2ccc(C)cc2)c1 [Compound 8Y] | > 30 µM
19 | COc1cccc([C@H](C)NCCCc2ccc(OC)c(OC)c2)c1 [Compound 20K] | > 30 µM
20 | COc1cccc([C@H](C)NCCCc2ccccc2)c1 [NPS S-467] | > 30 µM
21 | C[C@@H](NCCC(c1ccccc1)c1ccccc1)c1ccccc1 [R-Fendiline] | 9 µM
22 | C[C@H](NCCC(c1ccccc1)c1ccccc1)c1ccccc1 [S-Fendiline] | > 15 µM

same assay, conditions: Table 8 (arylalkylamine calcimimetics); parathyroid cell calcium receptor; read-out: EC50

Row | Structure (SMILES) | EC50
23 | COc1cccc([C@@H](C)NC2CCc3ccccc3C2)c1 (stereo partly shown) [5W/5Y] | 3.6 µM
24 | CC(NCCC(c1ccccc1)c1ccccc1)c1cccc2ccccc12 (stereo not shown) [Compound 3U] | 0.64 µM
25 | COc1cccc([C@@H](C)NCCCc2cccc(F)c2)c1 [Compound 4N] | 0.8 µM
26 | COc1cccc([C@@H](C)NCCCc2ccc(F)cc2)c1 [Compound 4P] | 1.6 µM
27 | COc1cccc(C(C)NCCC(C)c2ccccc2Cl)c1 (stereo not shown) [Compound 4Y] | 1.3 µM
28 | COc1cccc(C(C)NC(C)c2cccc3ccccc23)c1 (stereo not shown) [Compound 6E] | 2.7 µM
29 | CCOc1cccc([C@@H](C)NCCCc2ccccc2)c1 [Compound 6R] | 3.4 µM
30 | CCOc1cccc([C@@H](C)NCCCc2ccccc2Cl)c1 [Compound 6T] | 2.9 µM
31 | COc1cccc([C@@H](C)NCCCc2ccccc2OC)c1 [Compound 8U, (R)-(+)-N-3-(2-Methoxyphenyl)-1-propyl-3-methoxy-α-methylbenzylamine hydrochloride] | 0.44 µM
32 | COc1cccc([C@@H](C)NCCCc2ccc(C)cc2)c1 [Compound 8X] | 0.76 µM
33 | C[C@@H](NCc1ccc2ccccc2c1)c1cccc2ccccc12 [Compound 9C] | 0.6 µM
34 | CC(C)C(N[C@H](C)c1cccc2ccccc12)c1ccc2ccccc2c1 (stereo partly shown) [Compound 10F] | 0.89 µM
35 | CCOC(=O)COc1cccc([C@@H](C)NCc2ccc3ccccc3c2)c1 [Compound 11D] | 1.8 µM
36 | COc1cccc([C@@H](C)NCCCc2ccccc2C)c1 [Compound 12U, (R)-N-3-(2-Methylphenyl)-1-propyl-3-methoxy-α-methylbenzylamine hydrochloride] | 1.2 µM
37 | COc1cccc([C@@H](C)NCCCc2cccc(C)c2)c1 [Compound 12V, (R)-N-3-(3-Methylphenyl)-1-propyl-3-methoxy-α-methylbenzylamine hydrochloride] | 0.42 µM
38 | CCCOc1ccc(CN[C@H](C)c2cccc3ccccc23)cc1 [Compound 13Q] | ~0.8 µM
39 | C[C@@H](NCc1ccc(Cl)c(Cl)c1)c1cccc2ccccc12 [Compound 13R] | 0.25 µM
40 | C[C@@H](NCc1ccc(C(F)(F)F)cc1)c1cccc2ccccc12 [Compound 13S] | < 0.13 µM
41 | COc1ccc(CN[C@H](C)c2cccc3ccccc23)cc1 [Compound 13U] | 0.19 µM

Row | Structure (SMILES) | EC50
42 | C[C@@H](NCc1ccc2c(c1)OCCO2)c1cccc2ccccc12 [Compound 13X] | < 0.75 µM
43 | COc1ccc([C@H](C)N[C@H](C)c2cccc3ccccc23)cc1 [Compound 14V] | 1.7 µM
44 | COc1ccc(CN[C@H](C)c2cccc3ccccc23)cc1C [Compound 16Q] | 0.04 µM
45 | C[C@@H](NCc1ccc2c(c1)OCO2)c1cccc2ccccc12 [Compound 16R] | 0.36 µM
46 | COc1ccc(CN[C@H](C)c2cccc3ccccc23)cc1F [Compound 16T] | 0.04 µM
47 | Cc1ccc(CN[C@H](C)c2cccc3ccccc23)cc1C [Compound 16V] | < 0.13 µM
48 | CCOc1ccc(CN[C@H](C)c2cccc3ccccc23)cc1 [Compound 16W] | 0.59 µM
49 | CSc1ccc(CN[C@H](C)c2cccc3ccccc23)cc1 [Compound 16X] | 0.1 µM
50 | COc1ccc([C@@H](C)N[C@H](C)c2cccc3ccccc23)cc1Cl [Compound 17X, (R,R)-N-(1-Ethyl-4'-methoxy-3'-chlorophenyl)-1-(1-naphthylethyl)amine] | 0.02 µM
51 | COc1cccc([C@@H](C)NC2CCN(Cc3ccccc3)CC2)c1 [Compound 20F] | < 1 µM
52 | COc1ccc(CCCN[C@H](C)c2cccc(OC)c2)cc1 [Compound 20I] | > 1 µM
53 | COc1cccc([C@@H](C)NCCCc2ccc(OC)c(OC)c2)c1 [Compound 20J] | > 3 µM
54 | COc1cccc(C(C)NC(C)CCc2ccccc2)c1 (stereo not shown) [Compound 20R] | 2.4 µM
55 | CCC(CCc1ccccc1)NC(C)c1cccc(OC)c1 (stereo not shown) [Compound 20S] | 4.2 µM
56 | COc1cccc([C@@H](C)N[C@H](C)CCc2ccccc2)c1 [Compound 21D] | 3 µM
57 | C[C@H](CCc1ccccc1)N[C@H](C)c1cccc2ccccc12 [Compound 21F] | 0.38 µM
58 | C[C@@H](CCc1ccccc1)N[C@H](C)c1cccc2ccccc12 [Compound 21G] | 1.1 µM
59 | COc1cccc([C@@H](C)NCCCc2ccccc2C(F)(F)F)c1 [Compound 21O] | 0.26 µM
60 | COc1cccc([C@@H](C)NCCCc2ccc(C(F)(F)F)cc2)c1 [Compound 21Q] | 1.4 µM

same assay, conditions: bovine parathyroid cells, or Xenopus oocytes expressing calcium receptors

Row | Structure (SMILES) | response to mGluR agonists
61 | N[C@@]1(C(=O)O)CC[C@@H](C(=O)O)C1 (relative stereo) [trans-ACPD, reference compound] | did not respond

same assay, conditions: in words

Row | Structure (SMILES) | relative potency
62 | CC(NCCCc1ccccc1)c1ccccc1 (stereo not shown) [Compound 1D] | nearly as potent as the parent molecule
63 | COc1cccc(C(C)NCCC(c2ccccc2)c2ccccc2)c1 (stereo not shown) [meta-Methoxyfendiline] | as potent as NPS 467

same assay, conditions: ionomycin 1 μM, 1799 5 μM

Row | Structure (SMILES) | effect on [Ca^2+]i response to extracellular Mg^2+
64 | C[C@H](CCC(=O)O)C[C@H](C)C[C@H](C)C(=O)/C=C(\O)[C@H](C)C[C@H](C)C/C=C/[C@@H](C)[C@@H](O)[C@@H](C)[C@@H](O)C[C@@H]1CC[C@@](C)([C@H]2CC[C@@](C)([C@@H](C)O)O2)O1 [ionomycin, reference compound] | blocks the response to Mg^2+
65 | O=C(CC(O)(C(F)(F)F)C(F)(F)F)CC(O)(C(F)(F)F)C(F)(F)F [molecule 1799, reference compound] | without effect on the response to Mg^2+

same assay, conditions: parathyroid cell calcium receptor; […]; read-out: EC50

Row | Structure (SMILES) | EC50
66 | COc1cccc([C@@H](C)NCCCc2ccccc2OC)c1 [Compound 8U, (R)-(+)-N-3-(2-Methoxyphenyl)-1-propyl-3-methoxy-α-methylbenzylamine hydrochloride] | < 5 µM
67 | COc1cccc([C@@H](C)NCCCc2ccccc2C)c1 [Compound 12U, (R)-N-3-(2-Methylphenyl)-1-propyl-3-methoxy-α-methylbenzylamine hydrochloride] | < 5 µM
68 | COc1cccc([C@@H](C)NCCCc2cccc(C)c2)c1 [Compound 12V, (R)-N-3-(3-Methylphenyl)-1-propyl-3-methoxy-α-methylbenzylamine hydrochloride] | < 5 µM
69 | COc1ccc([C@@H](C)N[C@H](C)c2cccc3ccccc23)cc1Cl [Compound 17X, (R,R)-N-(1-Ethyl-4'-methoxy-3'-chlorophenyl)-1-(1-naphthylethyl)amine] | < 5 µM
